Values after ≈ are worked out from the molar mass of the structure shown. Values joined by “and” are separate entries in the source; they are usually repeats but may differ in a detail not shown here. Equal values may be shown once. Read-outs that look alike come from different tables or passages of the source. Numbered stars: 1 amine (or outer) side, 2 acyl side, 3 side chain; on linkers, the order of the positions; unused ones are H or OH. Square brackets hold non-standard residues; d marks the D form. Peptide text beside a SMILES is read from it. X1 = CC(C)[C@H](C)N(CC(=O)[*:2])[*:1]; Nspe = C[C@H](NCC(=O)O)c1ccccc1; Nphe = O=C(O)CNCc1ccccc1; Nlys = NCCCCNCC(=O)O
How the values were obtained:
human erythrocytes = assay: Hemolysis assay; assay type: cell-based
Procedure, shortened: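 Peptoid serial dilutions in PBS pH 7.4 were combined with an equal volume of 20 vol % washed human red cells (heparinised blood) for 1 h at 37 °C. After dilution and pelleting at 1200 g, released haemoglobin in supernatant was read at A350, scaled between PBS and 0.2 vol % Triton X-100 controls.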

B. subtilis (ATCC 6633) = assay type: cell-based
Procedure, shortened: (§1)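 MICs by broth microdilution per CLSI M7-A6 in cation-adjusted Mueller-Hinton broth, using 2:1 serial dilutions of peptoid and a bacterial inoculum of 1×10^6 CFU/mL. Values reproducible over three experiments, each with two parallel trials.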

E. coli (ATCC 35218) = assay type: cell-based
Procedure, shortened: as §1

[1] = MTS assay, metabolic inhibition; assay type: cell-based, mouse
Procedure, shortened: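 NIH/3T3 cells seeded at 5,000 per well, grown a day, then exposed to serially diluted peptoids in HBSS together with MTS reagent. Absorbance at 490 nm read after 3 hours at 37° C.; mean of six replicates.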

Enterococcus faecium 106 = assay type: cell-based; settings: for MIC E. faecium 106: Table 7A
Procedure: (§2) Antibacterial assays. MICs were determined according to CLSI M7-A6 protocols in a 96-well microtiter plate. In test wells, 50 μL bacterial inoculum (5×10^5 CFU/ml) in Mueller-Hinton broth (MHB) was added to 50 μL peptoid solution in MHB (prepared by 1:2 serial dilutions). Positive controls contained 50 μL inoculum and 50 μL MHB without peptoid. […] MIC values reported were reproducible between three independent experimental replicates, each consisting of two parallel trials. Broad-spectrum antimicrobial susceptibility testing was performed against BSL2 pathogens by Nova Biologicals, Inc. (Conroe, Tex.).
(§3) Broad-spectrum antibacterial assays. MICs of compounds were determined by microdilution procedure in Mueller-Hinton broth (MHB) in accordance with CLSI M7-A6 protocols in a manner similar to that described for the screen antibacterial assays. Inoculated microtiter plates were incubated at 35° C. for 24 hours prior to the result being recorded. Four ATCC strains that were used as standards are recommended by CLSI: Pseudomonas aeruginosa ATCC 27853, Escherichia coli ATCC 25922, Staphylococcus aureus ATCC 29213 and Enterococcus faecalis ATCC 29212. Other strains from the ATCC collection include Proteus vulgaris ATCC 49132, Proteus mirabilis ATCC 35659, Klebsiella pneumoniae ATCC 33495, Enterobacter aerogenes ATCC 35029 and Serratia marcescens ATCC 13880. S. aureus NRS100 (COL) is a well characterized methicillian-resistant S. aureus (MRSA) strain. The strains S. aureus VAN1 and S. aureus VAN2, vancomycin-resistant MRSA strains that were isolated in Michigan and Pennsylvania, were the first vancomycin-resistant strains clinically isolated. S. aureus NRS119 and S. aureus NRS120 are linezolid-resistant isolates from the Network on Antimicrobial Resistance in S. aureus (NARSA) collection. E. faecalis 99 and E. faecium 106 are vancomycin-resistant enterococcal strains.

[2] = tested on: Proteus mirabilis ATCC 35659; assay type: cell-based
Procedure: as §2, §3

[3] = tested on: Proteus vulgaris ATCC 49132; assay type: cell-based; settings: for MIC P. vulgaris ATCC 49132: Table 7A
Procedure: as §2, §3

[4] = tested on: Staphylococcus aureus VAN2; assay type: cell-based; settings: for MIC S. aureus VAN2: Table 7A, MRSA, vancomycin-resistant
Procedure: as §2, §3

| B. subtilis MIC (B. subtilis (ATCC 6633); ATCC 6633) | IC50 [1] | MIC Enterococcus faecium 106 (Enterococcus faecium 106; 106) | MIC E. faecium 106 (Enterococcus faecium 106) | MIC P. mirabilis ATCC 35659 ([2]; ATCC 35659) | MIC Proteus mirabilis ATCC 35659 ([2]; ATCC 35659) | MIC Proteus vulgaris ATCC 49132 ([3]; ATCC 49132) | MIC P. vulgaris ATCC 49132 [3] | MIC S. aureus VAN2 [4] | MIC Staphylococcus aureus VAN2 ([4]; VAN2) | Compound | HD10 (human erythrocytes) | HD50 (human erythrocytes) | E. coli MIC (E. coli (ATCC 35218); Table 6, ATCC 35218) | other results |
| --- | --- | --- | --- | --- | --- | --- | --- | --- | --- | --- | --- | --- | --- | --- |
| 0.78 µM | 20 µM | 2.4 µM (≈ 4.04 µg/mL) | 4 µg/mL (≈ 2.38 µM) | >128 µg/mL | >76.0 µM | 19.0 µM (≈ 32 µg/mL) | 32 µg/mL (≈ 19 µM) | 8 µg/mL (≈ 4.75 µM) | 4.8 µM (≈ 8.08 µg/mL) | CC(C)[C@H](C)N(CC(=O)N(CC(=O)N(CCCCN)CC(=O)N(CC(=O)N(CC(=O)N(CCCCN)CC(=O)N(CC(=O)N(CC(=O)N(CCCCN)CC(=O)N(CC(=O)N(CC(N)=O)[C@@H](C)c1ccccc1)[C@@H](C)C(C)C)[C@@H](C)c1ccccc1)[C@@H](C)C(C)C)[C@@H](C)c1ccccc1)[C@@H](C)C(C)C)[C@@H](C)c1ccccc1)C(=O)CNCCCCN [1-Nsdp2,5,8,11, H-(Nlys-Nsdp-Nspe)4-NH2] (H-[Nlys][X1][Nspe][Nlys][X1][Nspe][Nlys][X1][Nspe][Nlys][X1][Nspe]-NH2) | 111 µM | > 200 µM | 12.5 µM |  |
| 1.6 µM | 18 µM | 2.3 µM (≈ 4.04 µg/mL) |  | >128 µg/mL | >72.9 µM | 18.2 µM (≈ 31.9 µg/mL) |  |  | 4.6 µM (≈ 8.07 µg/mL) | C[C@@H](c1ccccc1)N(CC(N)=O)C(=O)CN(C(=O)CN(CCCCN)C(=O)CN(C(=O)CN(C(=O)CN(CCCCN)C(=O)[C@@H]1CCCN1C(=O)CN(C(=O)CN(CCCCN)C(=O)CN(C(=O)CN(C(=O)CNCCCCN)[C@@H](C)c1ccccc1)[C@@H](C)c1ccccc1)[C@@H](C)c1ccccc1)[C@@H](C)c1ccccc1)[C@@H](C)c1ccccc1)[C@@H](C)c1ccccc1 [1-Pro6, H-Nlys-Nspe-Nspe-Nlys-Nspe-L-Pro-(Nlys-Nspe-Nspe)2-NH2] (H-[Nlys][Nspe][Nspe][Nlys][Nspe]P[Nlys][Nspe][Nspe][Nlys][Nspe][Nspe]-NH2) | 83 µM | > 200 µM |  | HD10 (10% hemolytic dose) (human erythrocytes; red cells of human, 1 h): 63 µM; HD50 (50% hemolytic dose) (human erythrocytes; red cells of human, 1 h): > 110 µM; E. coli MIC (E. coli (ATCC 35218); ATCC 35218): 12.5 µM |
| 0.78 µM | 16 µM | 2.3 µM (≈ 3.93 µg/mL) | 4 µg/mL (≈ 2.34 µM) | >128 µg/mL | >75 µM | 18.7 µM (≈ 31.9 µg/mL) | 32 µg/mL (≈ 18.7 µM) | 8 µg/mL (≈ 4.69 µM) | 4.7 µM (≈ 8.02 µg/mL) | NCCCCNCC(=O)N(CC(=O)N(CC(=O)N(CCCCN)CC(=O)N(CC(=O)N(CC(=O)N(CCCCN)CC(=O)N(CC(=O)N(CC(=O)N(CCCCN)CC(=O)N(CC(=O)N(CC(N)=O)Cc1ccccc1)Cc1ccccc1)Cc1ccccc1)Cc1ccccc1)Cc1ccccc1)Cc1ccccc1)Cc1ccccc1)Cc1ccccc1 [1achiral, H-(Nlys-Npm-Npm)4-NH2] (H-[Nlys][Nphe][Nphe][Nlys][Nphe][Nphe][Nlys][Nphe][Nphe][Nlys][Nphe][Nphe]-NH2) |  |  |  |  |
|  |  |  |  |  |  |  |  |  |  | C[C@@H](c1ccccc1)N(CC(N)=O)C(=O)CN(C(=O)CN(CCCCN)C(=O)CN(C(=O)CN(C(=O)CN(CCCCN)C(=O)CN(C(=O)CN(C(=O)CN(CCCCN)C(=O)CN(C(=O)CN(C(=O)CNCCCCN)[C@@H](C)c1ccccc1)[C@@H](C)c1ccccc1)[C@@H](C)c1ccccc1)[C@@H](C)c1ccccc1)[C@@H](C)c1ccccc1)[C@@H](C)c1ccccc1)[C@@H](C)c1ccccc1 [compound 1, H-(NLys-Nspe-Nspe)4-NH2] (H-[Nlys][Nspe][Nspe][Nlys][Nspe][Nspe][Nlys][Nspe][Nspe][Nlys][Nspe][Nspe]-NH2) |  |  | 6.25 µM and 6.3 µM | HD10 (10% hemolytic dose) (human erythrocytes; Table 1, human erythrocytes): 21 µM; HD50 (50% hemolytic dose) (human erythrocytes; Table 1, human erythrocytes): 100 µM; HD10 (human erythrocytes; Table 2): 18 µM; HD50 (human erythrocytes; Table 2): 72 µM; HD10 (human erythrocytes; Table 3): 21 µM; HD50 (human erythrocytes; Table 3): 100 µM; HD10 (human erythrocytes; Table 6): 21 µM; HD50 (human erythrocytes; Table 6): 100 µM; B. subtilis MIC (B. subtilis (ATCC 6633); Table 3, ATCC 6633, cation-adjusted MHB): 1.6 µM; B. subtilis MIC (B. subtilis (ATCC 6633); Table 6, ATCC 6633): 1.6 µM; E. coli MIC (E. coli (ATCC 35218); Table 3, ATCC 35218, cation-adjusted MHB): 6.3 µM; IC50 ([1]; Table 6, NIH 3T3 mouse fibroblast cells): 5.1 µM; MIC Enterococcus faecium 106 (Enterococcus faecium 106; Table 4, vancomycin resistant): 2.2 µM (≈ 4 µg/mL); MIC Proteus mirabilis ATCC 35659 ([2]; Table 4, Gram −): >70.4 µM; MIC P. mirabilis ATCC 35659 ([2]; Table 7A): >128 µg/mL; MIC Proteus vulgaris ATCC 49132 ([3]; Table 4, Gram −): 17.6 µM (≈ 32 µg/mL); MIC Staphylococcus aureus VAN2 ([4]; Table 4, vancomycin resistant): 2.2 µM (≈ 4 µg/mL) |

Reference: US20100036088A1, “Selective poly-N-substituted glycine antibiotics” (priority 2008, published 2010)
